# Experimental data reported in patent US7208526B2, “Styrylsulfonamides” (Hoffmann-La Roche Inc., priority 2005, dated 2007).
# Counter-ions that a name gives are not always drawn.
# System: HCT 116 cells (human colon carcinoma, ATCC-No. CCl-247)
# Experiment: Viability assay in HCT 116 cells (CellTiter-Glo Luminescent Cell Viability Assay)
# Assay type: cell-based
# Details: 10 concentrations 30 μM to 0.0015 μM, incubation 120 h (5 days), luminescence (ATP), triplicate
# Text: Viability Assay in HCT 116 Cells
# This assay is a homogeneous method of determining the number of viable cells in culture based on quantitation of the ATP present, an indicator of metabolically active cells. The assay is designed for use with multiwell formats, making it ideal for automated high-throughput screening (HTS), cell proliferation and cytotoxicity assays. The homogeneous assay procedure involves adding a single reagent (containing luciferase, luciferan substrate, and buffer) directly to cells cultured in serum-supplemented medium. Cell washing, removal of medium and multiple pipetting steps are not required. The system detects as few as 15 cells/well in a 384-well format in 10 minutes after adding reagent and mixing.
# The homogeneous “add-mix-measure” format results in cell lysis and generation of a luminescent signal proportional to the amount of ATP present. The amount of ATP is directly proportional to the number of cells present in culture. The above-referenced assay generates a “glow-type” luminescent signal, produced by the luciferase reaction, which has a half-life generally greater than five hours, depending on cell type and medium used. The extended half-life eliminates the need to use reagent injectors and provides flexibility for continuous or batch mode processing of multiple plates. The unique homogeneous format avoids errors that may be introduced by other ATP measurement methods that require multiple steps.
# For the assay the cells were seeded in 384 well plates, 1000 cells per well, in the same medium. […] After 5 days the viability assay was done according to the instructions of the manufacturer. In brief: the cell-plate was equilibrated to room temperature for approximately 30 minutes and then reagent (containing luciferase, luciferan substrate, and buffer) was added. The contents were carefully mixed for 15 minutes to induce cell lysis. After 45 minutes the luminescent signal was measured in Victor 2, (scanning multiwell spectrophotometer, Wallac).
# In order to achieve a final concentration of 30 μM as highest concentration […] of 10 mM compound stock solution were added directly to 163 μl media. Then step e) of the dilution procedure described below, was followed.
# Analysis: • Add 30 μl of reagent containing luciferase, luciferan substrate, and buffer per well, • shake 15 minutes at room temperature • incubate further 45 minutes at room temperature without shaking
# Measurement: • Victor 2 scanning multiwell spectrophotometer (Wallac), Luminescence mode (0.5 sec/read, 477 nm) • Determine IC50 using a non-linear curve fit (XLfit® software [ID Business Solution Ltd., Guilford, Surrey, UK])
row,SMILES,IC50 [µM]
1,"O=C(NS(=O)(=O)/C=C/c1ccc(C(F)(F)F)cc1)c1ccc(Cl)cc1Cl [Example 1-3, (E)-2-(4-Trifluoromethyl-phenyl)-ethenesulfonic acid 2,4-dichloro-benzoylamide]",0.5 to 15
2,"COc1cc(C(F)(F)F)ccc1C(=O)NS(=O)(=O)/C=C/c1ccccc1 [Example 5-6, (E)-2-Phenyl-ethenesulfonic acid 2-methoxy-4-trifluoromethyl-benzoylamide]",0.5 to 15
3,"O=C(NS(=O)(=O)/C=C/c1ccccc1Cl)c1ccc(Cl)cc1Cl [Example 1-7, (E)-2-(2-Chlorophenyl)-ethenesulfonic acid 2,4-dichloro-benzoylamide]",0.5 to 15
4,"CN(C)c1ccccc1/C=C/S(=O)(=O)NC(=O)c1ccc(Cl)cc1Cl [Example 1-13, (E)-2-(2-Dimethylamino-phenyl)-ethenesulfonic acid 2,4-dichloro-benzoylamide]",0.5 to 15
5,"O=C(NS(=O)(=O)/C=C/c1ccc(OC(F)(F)F)cc1)c1ccc(F)cc1Br [Example 4-22, (E)-2-(4-Trifluoromethoxyphenyl)-ethenesulfonic acid 2-bromo-4-fluoro-benzoylamide; sodium salt]",0.5 to 15
6,"O=C(NS(=O)(=O)/C=C/c1ccc(OC(F)(F)F)cc1)c1ccc(F)cc1Cl [Example 1-39, (E)-2-(4-Trifluoromethoxyphenyl)-ethenesulfonic acid 2-chloro-4-fluoro-benzoylamide; sodium salt]",0.5 to 15
7,"COc1cccc(/C=C/S(=O)(=O)NC(=O)c2ccc(Cl)cc2OC)c1 [Example 4-5, (E)-2-(3-Methoxy-phenyl)-ethenesulfonic acid 4-chloro-2-methoxy-benzoylamide; sodium salt]",0.5 to 15
8,"COc1cccc(/C=C/S(=O)(=O)NC(=O)c2ccc(F)cc2Br)c1 [Example 4-18, (E)-2-(3-Methoxy-phenyl)-ethenesulfonic acid 2-bromo-4-fluoro-benzoylamide; sodium salt]",0.5 to 15
9,"O=C(NS(=O)(=O)/C=C/c1ccccc1Cl)c1ccc(Br)cc1Cl [Example 4-28, (E)-2-(2-Chloro-phenyl)-ethenesulfonic acid 4-bromo-2-chloro-benzoylamide; sodium salt]",0.5 to 15
10,"COc1ccccc1/C=C/S(=O)(=O)NC(=O)c1ccc(Cl)cc1Cl [Example 1-5, (E)-2-(2-Methoxy-phenyl)-ethenesulfonic acid 2,4-dichloro-benzoylamide]",0.5 to 15
11,"O=C(NS(=O)(=O)/C=C/c1ccccc1)c1ccc(Br)cc1Cl [Example 6-5, (E)-2-Phenyl-ethenesulfonic acid 4-bromo-2-chloro-benzoylamide; sodium salt]",0.5 to 15
12,"O=C(NS(=O)(=O)/C=C/c1ccccc1)c1ccc(Cl)cc1Br [Example 5-4, (E)-2-Phenyl-ethenesulfonic acid 2-bromo-4-chloro-benzoylamide]",0.5 to 15
13,"O=C(NS(=O)(=O)/C=C/c1ccccc1Cl)c1ccc(F)cc1Br [Example 4-21, (E)-2-(2-Chlorophenyl)-ethenesulfonic acid 2-bromo-4-fluoro-benzoylamide; sodium salt]",0.5 to 15
14,"O=C(NS(=O)(=O)/C=C/c1ccc(C(F)(F)F)cc1)c1ccc(F)cc1C(F)(F)F [Example 1-42, (E)-2-(4-Trifluoromethyl-phenyl)-ethenesulfonic acid 4-fluoro-2-trifluoromethyl-benzoylamide; sodium salt]",0.5 to 15
15,"O=C(NS(=O)(=O)/C=C/c1c(F)cc(F)cc1F)c1ccc(Cl)cc1Cl [Example 1-36, (E)-2-(2,4,6-Trifluoro-phenyl)-ethenesulfonic acid 2,4-dichloro-benzoylamide; sodium salt]",0.5 to 15
16,"O=C(NS(=O)(=O)/C=C/c1ccccc1)c1ccc(Cl)cc1Cl [Example 1-2, (E)-2-Phenyl-ethenesulfonic acid 2,4-dichloro-benzoylamide]",3.1

row,SMILES,IC50 [µM]
1,"COc1cccc(/C=C/S(=O)(=O)NC(=O)c2ccc(Br)cc2Cl)c1 [Example 4-25, (E)-2-(3-Methoxy-phenyl)-ethenesulfonic acid 4-bromo-2-chloro-benzoylamide; sodium salt]",0.5 to 15
2,"Cc1cc(Cl)ccc1C(=O)NS(=O)(=O)/C=C/c1ccccc1 [Example 6-6, (E)-2-Phenyl-ethenesulfonic acid 4-chloro-2-methyl-benzoylamide; sodium salt]",0.5 to 15
3,"Cc1cc(Cl)ccc1C(=O)NS(=O)(=O)/C=C/c1ccccc1Cl [Example 4-2, (E)-2-(2-Chlorophenyl)-ethenesulfonic acid 4-chloro-2-methyl-benzoylamide; sodium salt]",0.5 to 15
4,"COc1ccccc1/C=C/S(=O)(=O)NC(=O)c1ccc(C(F)(F)F)cc1C(F)(F)F [Example 1-28, (E)-2-(2-Methoxy-phenyl)-ethenesulfonic acid 2,4-bis-trifluoromethyl-benzoylamide; sodium salt]",0.5 to 15
5,"Cc1cc(Br)ccc1C(=O)NS(=O)(=O)C=Cc1ccccc1Cl [Example 4-10, 2-(2-Chlorophenyl)-ethenesulfonic acid 4-bromo-2-methyl-benzoylamide; sodium salt]",0.5 to 15
6,"O=C(NS(=O)(=O)/C=C/c1cccc(O)c1)c1ccc(Cl)cc1Cl [Example 1-35, (E)-2-(3-Hydroxy-phenyl)-ethenesulfonic acid 2,4-dichloro-benzoylamide]",0.5 to 15
7,"COc1cc(F)ccc1C(=O)NS(=O)(=O)/C=C/c1ccccc1 [Example 5-3, (E)-2-Phenyl-ethenesulfonic acid 4-fluoro-2-methoxy-benzoylamide]",0.5 to 15
8,"O=C(NS(=O)(=O)/C=C/c1ccc(OC(F)(F)F)cc1)c1ccc(Cl)cc1Cl [Example 1-9, (E)-2-(4-Trifluoromethoxyphenyl)-ethenesulfonic acid 2,4-dichloro-benzoylamide]",0.5 to 15
9,"C/C(=C\S(=O)(=O)NC(=O)c1ccc(Cl)cc1Cl)c1ccccc1 [Example 3-1, (E)-2-Phenyl-propene-1-sulfonic acid 2,4-dichloro-benzoylamide]",9.2
10,"COc1cc(Br)ccc1C(=O)NS(=O)(=O)/C=C/c1ccccc1 [Example 5-1, (E)-2-Phenyl-ethenesulfonic acid 4-bromo-2-methoxy-benzoylamide]",0.5 to 15
11,"Cc1ccc(C(=O)NS(=O)(=O)/C=C/c2ccc(Cl)c(Cl)c2)c(C)c1 [Example 4-34, (E)-2-(3,4-Dichloro-phenyl)-ethenesulfonic acid 2,4-dimethyl-benzoylamide; sodium salt]",0.5 to 15
12,"O=C(NS(=O)(=O)/C=C/c1ccccc1Cl)c1ccc(F)cc1C(F)(F)F [Example 1-23, (E)-2-(2-Chlorophenyl)-ethenesulfonic acid 4-fluoro-2-trifluoromethyl-benzoylamide; sodium salt]",0.5 to 15
13,"O=C(NS(=O)(=O)/C=C/c1ccccc1)c1ccc(F)cc1Br [Example 6-2, (E)-2-Phenyl-ethenesulfonic acid 2-bromo-4-fluoro-benzoylamide; sodium salt]",0.5 to 15
14,"O=C(NS(=O)(=O)/C=C/c1ccccc1O)c1ccc(Cl)cc1Cl [Example 1-33, (E)-2-(2-Hydroxy-phenyl)-ethenesulfonic acid 2,4-dichloro-benzoylamide]",0.5 to 15
15,"O=C(NS(=O)(=O)/C=C/c1ccc(Cl)cc1)c1ccc(Cl)cc1Cl [Example 1-1, (E)-2-(4-Chloro-phenyl)-ethenesulfonic acid 2,4-dichloro-benzoylamide]",8.5
